Experiment: xn = mol fraction of the nth substance listed
Conditions: Liquid, Vibrating tube method

c1ccsc1 [thiophene] + O=C=O
Conditions | mass density [kg/m3]
332.85 K, 13009 kPa, x2 = 0.199 | 1012.87
332.85 K, 13971 kPa, x2 = 0 | 1030.09
332.85 K, 14005 kPa, x2 = 0.199 | 1014.1
332.85 K, 15006 kPa, x2 = 0 | 1031.04
332.85 K, 15042 kPa, x2 = 0.199 | 1015.31
332.85 K, 15990 kPa, x2 = 0 | 1032.01
332.85 K, 16037 kPa, x2 = 0.199 | 1016.53
332.85 K, 17034 kPa, x2 = 0.199 | 1017.71
332.85 K, 17050 kPa, x2 = 0 | 1033.03
332.85 K, 17976 kPa, x2 = 0 | 1033.88
332.85 K, 18013 kPa, x2 = 0.199 | 1018.85
332.85 K, 19004 kPa, x2 = 0.199 | 1019.98
332.85 K, 19018 kPa, x2 = 0 | 1034.92
332.85 K, 20016 kPa, x2 = 0.199 | 1021.13
332.93 K, 10438 kPa, x2 = 0.9217 | 603.48
332.93 K, 11001 kPa, x2 = 0.9217 | 635.42
332.93 K, 12001 kPa, x2 = 0.9217 | 673.08
332.93 K, 13005 kPa, x2 = 0.9217 | 700.08
332.93 K, 13949 kPa, x2 = 0.9217 | 720.24
332.93 K, 15012 kPa, x2 = 0.9217 | 738.73
332.93 K, 16019 kPa, x2 = 0.9217 | 754.17
332.93 K, 17014 kPa, x2 = 0.9217 | 767.1
332.93 K, 18009 kPa, x2 = 0.9217 | 778.74
332.93 K, 18964 kPa, x2 = 0.9217 | 789.26
332.93 K, 20027 kPa, x2 = 0.9217 | 798.89
332.93 K, 21018 kPa, x2 = 0.9217 | 807.65
332.93 K, 22031 kPa, x2 = 0.9217 | 815.99
332.93 K, 23019 kPa, x2 = 0.9217 | 823.51
332.93 K, 23954 kPa, x2 = 0.9217 | 830.07
332.93 K, 25005 kPa, x2 = 0.9217 | 836.64
332.96 K, 6987 kPa, x2 = 0.3818 | 977.03
332.96 K, 8041 kPa, x2 = 0.3818 | 979.02
332.96 K, 9012 kPa, x2 = 0.3818 | 980.85
332.96 K, 10018 kPa, x2 = 0.3818 | 982.65
332.96 K, 11007 kPa, x2 = 0.3818 | 984.44
332.96 K, 12018 kPa, x2 = 0.3818 | 986.2
332.96 K, 13030 kPa, x2 = 0.3818 | 987.96
332.96 K, 13998 kPa, x2 = 0.3818 | 989.61
332.96 K, 14969 kPa, x2 = 0.3818 | 991.25
332.96 K, 16045 kPa, x2 = 0.3818 | 993.04
332.96 K, 17024 kPa, x2 = 0.3818 | 994.61
332.96 K, 18020 kPa, x2 = 0.3818 | 996.22
332.96 K, 19050 kPa, x2 = 0.3818 | 997.85
333.04 K, 9091 kPa, x2 = 0.6996 | 929.67
333.04 K, 10017 kPa, x2 = 0.6996 | 932.84
333.04 K, 11036 kPa, x2 = 0.6996 | 936.19
333.04 K, 11989 kPa, x2 = 0.6996 | 939.22
333.04 K, 13024 kPa, x2 = 0.6996 | 942.4
333.04 K, 14004 kPa, x2 = 0.6996 | 945.28
333.04 K, 14904 kPa, x2 = 0.6996 | 947.84
333.04 K, 16043 kPa, x2 = 0.6996 | 951.03
333.04 K, 17013 kPa, x2 = 0.6996 | 953.62
333.04 K, 18048 kPa, x2 = 0.6996 | 956.36
333.04 K, 19011 kPa, x2 = 0.6996 | 958.88
333.15 K, 101 kPa, x2 = 0 | 1014.58
342.66 K, 5097 kPa, x2 = 0.199 | 988.63
342.66 K, 6031 kPa, x2 = 0.199 | 989.99
342.66 K, 7084 kPa, x2 = 0.199 | 991.48
342.66 K, 8010 kPa, x2 = 0.199 | 992.78
342.66 K, 9020 kPa, x2 = 0.199 | 994.19
342.66 K, 10077 kPa, x2 = 0.199 | 995.61
342.66 K, 11049 kPa, x2 = 0.199 | 996.93
342.66 K, 11932 kPa, x2 = 0.199 | 998.15
342.66 K, 13009 kPa, x2 = 0.199 | 999.54
342.66 K, 13997 kPa, x2 = 0.199 | 1000.84
342.66 K, 14996 kPa, x2 = 0.199 | 1002.14
342.66 K, 16043 kPa, x2 = 0.199 | 1003.48
342.66 K, 17018 kPa, x2 = 0.199 | 1004.66
342.66 K, 18018 kPa, x2 = 0.199 | 1005.93
342.66 K, 19016 kPa, x2 = 0.199 | 1007.17
342.66 K, 20032 kPa, x2 = 0.199 | 1008.42
342.69 K, 9071 kPa, x2 = 0.5661 | 923.94
342.69 K, 10000 kPa, x2 = 0.5661 | 926.85
342.69 K, 11013 kPa, x2 = 0.5661 | 929.94
342.69 K, 11994 kPa, x2 = 0.5661 | 932.85
342.69 K, 13024 kPa, x2 = 0.5661 | 935.81
342.69 K, 13996 kPa, x2 = 0.5661 | 938.48
342.69 K, 15008 kPa, x2 = 0.5661 | 941.2
342.69 K, 16016 kPa, x2 = 0.5661 | 943.82
342.69 K, 17021 kPa, x2 = 0.5661 | 946.37
342.69 K, 18030 kPa, x2 = 0.5661 | 948.87
342.69 K, 19004 kPa, x2 = 0.5661 | 951.23
342.77 K, 1039 kPa, x2 = 0 | 1004.75
342.77 K, 2072 kPa, x2 = 0 | 1005.93
342.77 K, 3033 kPa, x2 = 0 | 1007.02
342.77 K, 4023 kPa, x2 = 0 | 1008.17
342.77 K, 5027 kPa, x2 = 0 | 1009.26
342.77 K, 6033 kPa, x2 = 0 | 1010.36
342.77 K, 7008 kPa, x2 = 0 | 1011.44
342.77 K, 7998 kPa, x2 = 0 | 1012.5
342.77 K, 9005 kPa, x2 = 0 | 1013.59
342.77 K, 10000 kPa, x2 = 0 | 1014.65
342.77 K, 10963 kPa, x2 = 0 | 1015.65
342.77 K, 12009 kPa, x2 = 0 | 1016.72
342.77 K, 13023 kPa, x2 = 0 | 1017.82
342.77 K, 13928 kPa, x2 = 0 | 1018.74
342.77 K, 15009 kPa, x2 = 0 | 1019.83
342.77 K, 15998 kPa, x2 = 0 | 1020.79
342.77 K, 17025 kPa, x2 = 0 | 1021.8
342.77 K, 17995 kPa, x2 = 0 | 1022.8
342.77 K, 19013 kPa, x2 = 0 | 1023.79
342.77 K, 20001 kPa, x2 = 0 | 1024.73
342.91 K, 7074 kPa, x2 = 0.3818 | 959.84
342.91 K, 7993 kPa, x2 = 0.3818 | 961.78
342.91 K, 8982 kPa, x2 = 0.3818 | 963.81
342.91 K, 10027 kPa, x2 = 0.3818 | 965.93

Reference: the NIST ThermoML archive (doi:10.1016/j.fluid.2005.07.017)
